Assay results published in PubChem BioAssay (NCI).
Values joined by “and” are separate entries in the source; they are usually repeats but may differ in a detail not shown here. Identical values can stand only once.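 Following 48 hours of exposure in 96-well plates, responses at five concentrations were used to interpolate endpoints linearly. GI50 = concentration required for 50% inhibition of growth. TGI is the concentration that stops growth completely.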

How the values were obtained:
Test in all cases: growth of human tumour cells (NCI), 48 h
[1] = system: RPMI-8226 leukemia
[2] = system: SN12C renal
[3] = system: RXF 393 renal
[4] = system: NCI-H460 lung
[5] = system: DU-145 prostate
[6] = system: 786-0 renal
[7] = system: NCI-H23 lung
[8] = system: OVCAR-4 ovarian
[9] = system: HT29 colon
[10] = system: HOP-62 NSCLC
[11] = system: OVCAR-5 ovarian
[12] = system: SK-MEL-2 melanoma

| SMILES | TGI [1] | TGI [2] | TGI [3] | TGI [4] | TGI [5] | TGI [6] | TGI [7] | TGI [8] | TGI [9] | TGI [10] | TGI [11] | TGI [12] | GI50 [2] | GI50 [3] | GI50 [4] | GI50 [5] | GI50 [9] | GI50 [11] | GI50 [10] |
| --- | --- | --- | --- | --- | --- | --- | --- | --- | --- | --- | --- | --- | --- | --- | --- | --- | --- | --- | --- |
| O=C(Nn1c(-c2ccccc2)nc2ccccc2c1=O)c1ccccn1 | > 100 µM | > 100 µM | > 100 µM | > 100 µM | > 100 µM | > 100 µM | > 100 µM | > 100 µM | > 100 µM | > 100 µM | – | – | – | – | – | – | – | – | – |
| OCC1OC(n2cnc3cccnc32)CC1O (stereo unspecified) | – | > 100 µM | > 100 µM | > 100 µM | > 100 µM | > 100 µM | > 100 µM | > 100 µM | > 100 µM | > 100 µM | > 100 µM | > 100 µM | – | – | – | – | – | – | – |
| Nc1nc(Cl)cc(N=Nc2ccccc2)n1 | > 100 µM | > 100 µM | 97.2 µM | – | > 100 µM | > 100 µM | 55.5 µM | – | > 100 µM | 60.1 µM | > 100 µM | 46.9 µM | – | – | – | – | – | – | – |
| CC1(O)C=CC2CCC1C2O (stereo unspecified) | 53.5 µM | > 100 µM | > 100 µM | > 100 µM | – | 75.5 µM | > 100 µM | > 100 µM | > 100 µM | > 100 µM | > 100 µM | > 100 µM | – | – | – | – | – | – | – |
| Cc1ccc(C(=O)N(C(C)C)C(C)C)cc1N=NN(C)C | > 100 µM | > 100 µM | – | > 100 µM | > 100 µM | > 100 µM | > 100 µM | > 100 µM | > 100 µM | > 100 µM | > 100 µM | > 100 µM | – | – | – | – | – | – | – |
| O=C(c1ccc2ccccc2c1)C1S(=O)(=O)OCCOS1(=O)=O | > 100 µM | > 100 µM | – | > 100 µM | > 100 µM | > 100 µM | > 100 µM | > 100 µM | > 100 µM | > 100 µM | > 100 µM | > 100 µM | – | – | – | – | – | – | – |
| O=C1c2[nH]cc(CN3CCNCC3)c2C(=O)c2c1c(O)c1ccccc1c2O | – | 5.15 µM | 71.2 µM | > 78.3 µM | 3.06 µM | – | – | – | > 100 µM | 1.14 µM | 4.13 µM | – | 1.78 µM | 23.9 µM | 18.5 µM | 1.67 µM | 2.44 µM | 1.86 µM | – |
| COP(=O)(OC)C(N)CCSC (stereo unspecified) | > 100 µM | > 100 µM | – | > 100 µM | – | > 100 µM | > 100 µM | > 100 µM | > 100 µM | > 100 µM | > 100 µM | > 100 µM | – | – | – | – | – | – | – |
| CCOc1ccc2[nH]c3c(C)c4cc[n+](C)cc4c(C)c3c2c1 | > 86.8 µM | 1.25 µM and 2.69 µM | > 100 µM | 11.5 µM and 12.6 µM | – | 1.62 µM and 2.43 µM | 3.38 µM and 3.31 µM | 15.2 µM and 26.2 µM | 28.4 µM and 32.7 µM | 4.76 µM and 6.01 µM | > 100 µM | 2.53 µM and 8.79 µM | – | – | – | – | – | 10.3 µM and 38.8 µM | 0.415 µM and 1.12 µM |
| CC1(C)COC(c2cccc(C3=NC(C)(C)CO3)c2Br)=N1 | > 100 µM | – | > 100 µM | > 100 µM | > 100 µM | > 100 µM | > 100 µM | > 100 µM | > 100 µM | > 100 µM | > 100 µM | > 100 µM | – | – | – | – | – | – | – |
